# Laboratory results from patent publication US5080904A, “Liposome composition and its production” (Takeda Chemical Industries, Ltd., priority 1989, dated 1992).
# Columns and labels:
# [1] = Phase transition temperature of the lipid; type: physicochemical
# [2] = Biochemica et Biophysica Acta, 859, 246-256 (1986); cited from earlier work
Compound,phase transition temperature (found value) of phospholipid [1],"phase transition temperature of sulfatide, first value [2]","phase transition temperature of sulfatide, second value [2]"
"CCCCCCCCCCCCCCCCCC(=O)OCC(COP(=O)([O-])OCC[N+](C)(C)C)OC(=O)CCCCCCCCCCCCCCCCC (centres unmarked) [DSPC, distearoylphosphatidylcholine]",54.9 °C,,
"CCCCCCCCCCCCCC(=O)OC[C@H](COP(=O)([O-])OCC[N+](C)(C)C)OC(=O)CCCCCCCCCCCCC [DMPC, dimyristoylphosphatidylcholine]",23.9 °C,,
"CCCCCCCCCCCCCCCC(=O)OC[C@H](COP(=O)([O-])OCC[N+](C)(C)C)OC(=O)CCCCCCCCCCCCCCC [DPPC, dipalmitoylphosphatidylcholine]",41.4 °C,,
"CCCCCCCCCCCCCC(=O)OCC(COP(=O)(O)OCC(N)C(=O)O)OC(=O)CCCCCCCCCCCCC (centres unmarked) [DMPS, dimyristoylphosphatidylserine]",38 °C,,
"CCCCCCCCCCCCCC(=O)OCC(COP(=O)(O)OCC(O)CO)OC(=O)CCCCCCCCCCCCC (centres unmarked) [DMPG, dimyristoylphosphatidylglycerol]",23 °C,,
"CCCCCCCCCCCCCCCCCC(=O)OCC(COP(=O)(O)OCC(N)C(=O)O)OC(=O)CCCCCCCCCCCCCCCCC (centres unmarked) [DSPS, distearoylphosphatidylserine]",over 50 °C,,
"CCCCCCCCCCCCCCCC(=O)OCC(COP(=O)(O)OCCN)OC(=O)CCCCCCCCCCCCCCC (centres unmarked) [DPPE, dipalmitoylphosphatidylethanolamine]",60 °C,,
"CCCCCCCCCCCCCCCC(=O)OCC(COP(=O)(O)OCC(O)CO)OC(=O)CCCCCCCCCCCCCCC (centres unmarked) [DPPG, dipalmitoylphosphatidylglycerol]",41 °C,,
"CCCCCCCCCCCCCCCC(=O)OCC(COP(=O)(O)OCC(N)C(=O)O)OC(=O)CCCCCCCCCCCCCCC (centres unmarked) [DPPS, dipalmitoylphosphatidylserine]",51 °C,,
"CCCCCCCCCCCCCC(=O)OCC(COP(=O)(O)OCCN)OC(=O)CCCCCCCCCCCCC (centres unmarked) [DMPE, dimyristoylphosphatidylethanolamine]",50 °C,,
sulfatide,,34.8 °C,47.3 °C

# Further lines, with some results ahead:
phase transition temperature (found value) of phospholipid [1],Compound,"phase transition temperature of sulfatide, first value [2]","phase transition temperature of sulfatide, second value [2]"
57 °C,distearoylsphingomyelin [DSSM],,
41 °C,dipalmitoylsphingomyelin [DPSM],,
44.0 °C,"CCCCCCCCCCCCCCCCCC(=O)OC[C@H](COP(=O)([O-])OCC[N+](C)(C)C)OC(=O)CCCCCCCCCCCCCCC [SPPC, stearoylpalmitoylphosphatidylcholine]",,
over 60 °C,"CCCCCCCCCCCCCCCCCC(=O)OCC(COP(=O)(O)OCCN)OC(=O)CCCCCCCCCCCCCCCCC (centres unmarked) [DSPE, disteraroylphosphatidylethanolamine]",,
47.4 °C,"CCCCCCCCCCCCCCCCCC(=O)O[C@H](COC(=O)CCCCCCCCCCCCCCC)COP(=O)([O-])OCC[N+](C)(C)C [PSPC, palmitoylstearoylphosphatidylcholine]",,
27.2 °C,"CCCCCCCCCCCCCCCC(=O)OC[C@H](COP(=O)([O-])OCC[N+](C)(C)C)OC(=O)CCCCCCCCCCCCC [PMPC, palmitoylmyristoylphosphatidylcholine]",,
35.3 °C,myristoylpalmitoylphosphatidylcholine [MPPC],,
55 °C,"CCCCCCCCCCCCCCCCCC(=O)OCC(COP(=O)(O)OCC(O)CO)OC(=O)CCCCCCCCCCCCCCCCC (centres unmarked) [DSPG, distearoylphosphatidylglycerol]",,
